Like-named read-outs stand apart in the source and are kept apart here.

The values below come from patent US9273058B2 (BRISTOL-MYERS SQUIBB COMPANY, priority 2013, dated 2016).

Assay [1] has as its target CK1ε (Homo sapiens, UniProt P49674). As to the kind of experiment: CK1ε kinase assay (Caliper LabChip electrophoretic separation of fluoresceinated peptide substrate and product). The assay is classed as biochemical. Conditions: 200 pM CK1ε, 50 μM ATP, 1.5 μM peptide, 22 hours at room temperature. In a few lines:
(§1)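 Compounds, taken from 10 mM DMSO stocks, are titrated at eleven concentrations. Kinase reactions proceed for 22 hours at room temperature and are quenched with EDTA. Substrate and product are resolved electrophoretically, and IC50 values are fitted by non-linear regression.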

The target of assay [2] is CK1δ (Homo sapiens, UniProt P48730). The assay can be described thus: CK1δ kinase assay (Caliper LabChip electrophoretic separation of fluoresceinated peptide substrate and product). Conditions: 200 pM CK1δ, 50 μM ATP, 1.5 μM peptide, 22 hours at room temperature. Format: biochemical. In a few lines: as §1
Chain of CK1δ (P48730 whole entry): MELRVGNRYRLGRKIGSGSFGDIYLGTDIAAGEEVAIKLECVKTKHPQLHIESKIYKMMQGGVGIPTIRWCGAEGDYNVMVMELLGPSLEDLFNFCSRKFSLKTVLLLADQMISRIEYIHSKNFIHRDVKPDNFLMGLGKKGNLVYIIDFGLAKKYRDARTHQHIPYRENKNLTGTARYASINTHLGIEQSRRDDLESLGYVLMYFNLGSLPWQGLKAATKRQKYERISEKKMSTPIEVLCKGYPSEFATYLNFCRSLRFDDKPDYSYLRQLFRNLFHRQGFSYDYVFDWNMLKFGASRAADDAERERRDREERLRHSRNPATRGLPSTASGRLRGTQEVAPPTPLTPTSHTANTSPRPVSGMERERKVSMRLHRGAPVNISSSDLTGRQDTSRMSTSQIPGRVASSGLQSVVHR

Chain of CK1ε (P49674 whole entry): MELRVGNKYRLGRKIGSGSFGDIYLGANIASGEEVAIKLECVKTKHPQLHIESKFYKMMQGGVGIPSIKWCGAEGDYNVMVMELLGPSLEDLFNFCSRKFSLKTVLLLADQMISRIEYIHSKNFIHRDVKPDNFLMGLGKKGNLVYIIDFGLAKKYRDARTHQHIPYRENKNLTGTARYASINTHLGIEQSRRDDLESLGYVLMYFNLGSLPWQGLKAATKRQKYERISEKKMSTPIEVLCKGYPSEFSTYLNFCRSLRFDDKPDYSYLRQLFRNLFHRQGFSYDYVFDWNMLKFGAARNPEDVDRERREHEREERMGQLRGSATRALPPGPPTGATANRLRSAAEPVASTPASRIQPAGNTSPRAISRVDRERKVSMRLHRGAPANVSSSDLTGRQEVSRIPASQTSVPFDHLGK

Take `CC(C)NC(=O)N1CCn2nc(-c3ccc(F)cc3)c(C(N)=O)c2C1` [Compound 2, 2-(4-Fluorophenyl)-N^5-isopropyl-6,7-dihydropyrazolo[1,5-a]pyrazine-3,5(4H)-dicarboxamide]: the IC50 in assay [1] (read-out: CK1ε IC50 range) and in assay [2] (read-out: CK1δ IC50 range) was 10 to 100 nM each time.
Turning to `CC(C)(C)NC(=O)N1CCn2nc(-c3cccc(F)c3)c(C(N)=O)c2C1` [Compound 4, N^5-(tert-Butyl)-2-(3-fluorophenyl)-6,7-dihydropyrazolo[1,5-a]pyrazine-3,5(4H)-dicarboxamide], the IC50 in assay [1] (read-out: CK1ε) is 38.1 nM; in assay [1] (read-out: CK1ε IC50 range), 10 to 100 nM; in assay [2] (read-out: CK1δ), 10.9 nM; in assay [2] (read-out: CK1δ IC50 range), 10 to 100 nM.
Consider `CC(C)NC(=O)N1CCn2nc(-c3cccc(F)c3)c(C(N)=O)c2C1` [Compound 5, 2-(3-Fluorophenyl)-N^5-isopropyl-6,7-dihydropyrazolo[1,5-a]pyrazine-3,5(4H)-dicarboxamide], for which the IC50 in assay [1] (read-out: CK1ε IC50 range) and in assay [2] (read-out: CK1δ IC50 range) was 10 to 100 nM each time.
Consider `NC(=O)c1c(-c2cccc(F)c2)nn2c1CN(C(=O)NC1CCCCC1)CC2` [Compound 6, N^5-Cyclohexyl-2-(3-fluorophenyl)-6,7-dihydropyrazolo[1,5-a]pyrazine-3,5(4H)-dicarboxamide], for which the IC50 in assay [1] (read-out: CK1ε) was 7.2 nM; in assay [1] (read-out: CK1ε IC50 range), 0.01 to 10 nM; in assay [2] (read-out: CK1δ), 2.4 nM; in assay [2] (read-out: CK1δ IC50 range), 0.01 to 10 nM.
As for `NC(=O)c1c(-c2cccc(F)c2)nn2c1CN(C(=O)NC1CC1)CC2` [Compound 7, N^5-Cyclopropyl-2-(3-fluorophenyl)-6,7-dihydropyrazolo[1,5-a]pyrazine-3,5(4H)-dicarboxamide], the IC50 in assay [1] (read-out: CK1ε IC50 range) and in assay [2] (read-out: CK1δ IC50 range) was 10 to 100 nM throughout.
As to `NC(=O)c1c(-c2cccc(F)c2)nn2c1CN(C(=O)NC1CCC1)CC2` [Compound 8, N^5-Cyclobutyl-2-(3-fluorophenyl)-6,7-dihydropyrazolo[1,5-a]pyrazine-3,5(4H)-dicarboxamide], the IC50 in assay [1] (read-out: CK1ε IC50 range) and in assay [2] (read-out: CK1δ IC50 range) was 10 to 100 nM throughout.
Regarding `CC1(NC(=O)N2CCn3nc(-c4cccc(F)c4)c(C(N)=O)c3C2)CC1` [Compound 11, 2-(3-Fluorophenyl)-N^5-(1-methylcyclopropyl)-6,7-dihydropyrazolo[1,5-a]pyrazine-3,5(4H)-dicarboxamide], the IC50 in assay [1] (read-out: CK1ε IC50 range) and in assay [2] (read-out: CK1δ IC50 range) was 10 to 100 nM throughout.
With `NC(=O)c1c(-c2cccc(F)c2)nn2c1CN(C(=O)NC1CCC(F)(F)CC1)CC2` [Compound 12, N^5-(4,4-Difluorocyclohexyl)-2-(3-fluorophenyl)-6,7-dihydropyrazolo[1,5-a]pyrazine-3,5(4H)-dicarboxamide], the IC50 in assay [1] (read-out: CK1ε IC50 range) is 100 to 2000 nM; in assay [2] (read-out: CK1δ IC50 range), 10 to 100 nM.
The matching figures for `CC(C)(NC(=O)N1CCn2nc(-c3cccc(F)c3)c(C(N)=O)c2C1)C(F)(F)F` [Compound 13, 2-(3-Fluorophenyl)-N^5-(1,1,1-trifluoro-2-methylpropan-2-yl)-6,7-dihydropyrazolo[1,5-a]pyrazine-3,5(4H)-dicarboxamide]: 10 to 100 nM and 0.01 to 10 nM.
The matching figures for `NC(=O)c1c(-c2cccc(F)c2)nn2c1CN(C(=O)NCCC(F)(F)F)CC2` [Compound 14, 2-(3-Fluorophenyl)-N^5-(3,3,3-trifluoropropyl)-6,7-dihydropyrazolo[1,5-a]pyrazine-3,5(4H)-dicarboxamide]: 10 to 100 nM and 10 to 100 nM.
The matching figures for `NC(=O)c1c(-c2cccc(F)c2)nn2c1CN(C(=O)NCC(F)(F)F)CC2` [Compound 15, 2-(3-Fluorophenyl)-N^5-(2,2,2-trifluoroethyl)-6,7-dihydropyrazolo[1,5-a]pyrazine-3,5(4H)-dicarboxamide]: 100 to 2000 nM and 10 to 100 nM.
Consider `CC1(C)CC(NC(=O)N2CCn3nc(-c4cccc(F)c4)c(C(N)=O)c3C2)CC(C)(C)N1` [Compound 18, 2-(3-Fluorophenyl)-N^5-(2,2,6,6-tetramethylpiperidin-4-yl)-6,7-dihydropyrazolo[1,5-a]pyrazine-3,5(4H)-dicarboxamide], for which the IC50 in assay [1] (read-out: CK1ε IC50 range) lay in the range of 100 to 2000 nM; in assay [2] (read-out: CK1δ IC50 range) it was 10 to 100 nM.
Turning to `NC(=O)c1c(-c2cccc(F)c2)nn2c1CN(C(=O)NC1(C(F)(F)F)CC1)CC2` [Compound 20, 2-(3-Fluorophenyl)-N^5-(1-(trifluoromethyl)cyclopropyl)-6,7-dihydropyrazolo[1,5-a]pyrazine-3,5(4H)-dicarboxamide], the IC50 in assay [1] (read-out: CK1ε IC50 range) and in assay [2] (read-out: CK1δ IC50 range) was 10 to 100 nM throughout.
With `NC(=O)c1c(-c2cccc(F)c2)nn2c1CN(C(=O)NC13CC(C1)C3)CC2` [Compound 24, N^5-(Bicyclo[1.1.1]pentan-1-yl)-2-(3-fluorophenyl)-6,7-dihydropyrazolo[1,5-a]pyrazine-3,5(4H)-dicarboxamide], the IC50 in assay [1] (read-out: CK1ε IC50 range) and in assay [2] (read-out: CK1δ IC50 range) was 10 to 100 nM each time.
For the compound `NC(=O)c1c(-c2cccc(F)c2)nn2c1CN(C(=O)Nc1cc(F)ccc1F)CC2` [Compound 26, N^5-(2,5-Difluorophenyl)-2-(3-fluorophenyl)-6,7-dihydropyrazolo[1,5-a]pyrazine-3,5(4H)-dicarboxamide], the IC50 in assay [1] (read-out: CK1ε IC50 range) and in assay [2] (read-out: CK1δ IC50 range) was 10 to 100 nM each time.
Consider `NC(=O)c1c(-c2cccc(F)c2)nn2c1CN(C(=O)Nc1cc(F)cc(F)c1F)CC2` [Compound 27, 2-(3-Fluorophenyl)-N^5-(2,3,5-trifluorophenyl)-6,7-dihydropyrazolo[1,5-a]pyrazine-3,5(4H)-dicarboxamide], for which the IC50 in assay [1] (read-out: CK1ε IC50 range) and in assay [2] (read-out: CK1δ IC50 range) was 10 to 100 nM in each case.
For the compound `NC(=O)c1c(-c2cccc(F)c2)nn2c1CN(C(=O)Nc1cccc(F)c1F)CC2` [Compound 28, N^5-(2,3-Difluorophenyl)-2-(3-fluorophenyl)-6,7-dihydropyrazolo[1,5-a]pyrazine-3,5(4H)-dicarboxamide], the IC50 in assay [1] (read-out: CK1ε IC50 range) and in assay [2] (read-out: CK1δ IC50 range) was 10 to 100 nM throughout.
For the compound `NC(=O)c1c(-c2cccc(F)c2)nn2c1CN(C(=O)Nc1ccc(F)cc1F)CC2` [Compound 30, N^5-(2,4-Difluorophenyl)-2-(3-fluorophenyl)-6,7-dihydropyrazolo[1,5-a]pyrazine-3,5(4H)-dicarboxamide], the IC50 in assay [1] (read-out: CK1ε IC50 range) and in assay [2] (read-out: CK1δ IC50 range) was 10 to 100 nM in each case.
Take `NC(=O)c1c(-c2cccc(F)c2)nn2c1CN(C(=O)Nc1ccc(F)cc1Cl)CC2` [Compound 32, N^5-(2-Chloro-4-fluorophenyl)-2-(3-fluorophenyl)-6,7-dihydropyrazolo[1,5-a]pyrazine-3,5(4H)-dicarboxamide]: the IC50 in assay [1] (read-out: CK1ε IC50 range) and in assay [2] (read-out: CK1δ IC50 range) was 10 to 100 nM each time.
As to `NC(=O)c1c(-c2cccc(F)c2)nn2c1CN(C(=O)Nc1c(F)cc(F)cc1F)CC2` [Compound 40, 2-(3-Fluorophenyl)-N^5-(2,4,6-trifluorophenyl)-6,7-dihydropyrazolo[1,5-a]pyrazine-3,5(4H)dicarboxamide], the IC50 in assay [1] (read-out: CK1ε IC50 range) fell in the range of 100 to 2000 nM; in assay [2] (read-out: CK1δ IC50 range) it was 10 to 100 nM.
Consider `NC(=O)c1c(-c2cccc(F)c2)nn2c1CN(C(=O)NCCc1ccc(F)cc1)CC2` [Compound 42, N^5-(4-Fluorophenethyl)-2-(3-fluorophenyl)-6,7-dihydropyrazolo[1,5-a]pyrazine-3,5(4H)-dicarboxamide], for which the values for the IC50 in assay [1] (read-out: CK1ε IC50 range) and in assay [2] (read-out: CK1δ IC50 range) were 100 to 2000 nM and 10 to 100 nM, respectively.
For `NC(=O)c1c(-c2cccc(F)c2)nn2c1CN(C(=O)Nc1ccc(Cl)cc1Cl)CC2` [Compound 43, N^5-(2,4-Dichlorophenyl)-2-(3-fluorophenyl)-6,7-dihydropyrazolo[1,5-a]pyrazine-3,5(4H)-dicarboxamide], the IC50 in assay [1] (read-out: CK1ε IC50 range) and in assay [2] (read-out: CK1δ IC50 range) was 10 to 100 nM throughout.
`COc1ccc(CCNC(=O)N2CCn3nc(-c4cccc(F)c4)c(C(N)=O)c3C2)cc1` [Compound 47, 2-(3-Fluorophenyl)-N^5-(4-methoxyphenethyl)-6,7-dihydropyrazolo[1,5-a]pyrazine-3,5(4H)-dicarboxamide]: the IC50 in assay [1] (read-out: CK1ε IC50 range) was in the range of 100 to 2000 nM; in assay [2] (read-out: CK1δ IC50 range) it was 10 to 100 nM.
In the case of `NC(=O)c1c(-c2cccc(F)c2)nn2c1CN(C(=O)Nc1ccccc1C(F)(F)F)CC2` [Compound 48, 2-(3-Fluorophenyl)-N^5-(2-(trifluoromethyl)phenyl)-6,7-dihydropyrazolo[1,5-a]pyrazine-3,5(4H)-dicarboxamide], the IC50 in assay [1] (read-out: CK1ε IC50 range) was 100 to 2000 nM; in assay [2] (read-out: CK1δ IC50 range) it was 10 to 100 nM.
Take `NC(=O)c1c(-c2cccc(F)c2)nn2c1CN(C(=O)Nc1cccc3ccccc13)CC2` [Compound 52, 2-(3-Fluorophenyl)-N^5-(naphthalen-1-yl)-6,7-dihydropyrazolo[1,5-a]pyrazine-3,5(4H)-dicarboxamide]: the IC50 in assay [1] (read-out: CK1ε IC50 range) and in assay [2] (read-out: CK1δ IC50 range) was 10 to 100 nM each time.
With `N#Cc1cccc(NC(=O)N2CCn3nc(-c4cccc(F)c4)c(C(N)=O)c3C2)c1` [Compound 54, N^5-(3-Cyanophenyl)-2-(3-fluorophenyl)-6,7-dihydropyrazolo[1,5-a]pyrazine-3,5(4H)-dicarboxamide], the IC50 in assay [1] (read-out: CK1ε IC50 range) and in assay [2] (read-out: CK1δ IC50 range) was 0.01 to 10 nM each time.
Turning to `NC(=O)c1c(-c2cccc(F)c2)nn2c1CN(C(=O)Nc1ccc(Cl)cc1C(F)(F)F)CC2` [Compound 57, N^5-(4-Chloro-2-(trifluoromethyl)phenyl)-2-(3-fluorophenyl)-6,7-dihydropyrazolo[1,5-a]pyrazine-3,5(4H)-dicarboxamide], the IC50 in assay [1] (read-out: CK1ε IC50 range) was 100 to 2000 nM; in assay [2] (read-out: CK1δ IC50 range), 10 to 100 nM.
With `N#Cc1ccc(NC(=O)N2CCn3nc(-c4cccc(F)c4)c(C(N)=O)c3C2)cc1` [Compound 61, N^5-(4-Cyanophenyl)-2-(3-fluorophenyl)-6,7-dihydropyrazolo[1,5-a]pyrazine-3,5(4H)-dicarboxamide], the IC50 was 5 nM in assay [1] (read-out: CK1ε), 0.01 to 10 nM in assay [1] (read-out: CK1ε IC50 range), 2.6 nM in assay [2] (read-out: CK1δ) and 0.01 to 10 nM in assay [2] (read-out: CK1δ IC50 range).
